PubChem BioAssay (NCI)
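All cell lines were grown in 96-well plates and treated with compound for 48 hours. The concentration for 50% growth inhibition is given as GI50. TGI denotes the concentration required for complete inhibition of growth.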

Assays:
Experiment in all cases: growth of human tumour cells (NCI), 48 h
SW-620 colon = test system: SW-620 colon
MALME-3M melanoma = test system: MALME-3M melanoma
OVCAR-5 ovarian = test system: OVCAR-5 ovarian
DU-145 prostate = test system: DU-145 prostate
HCC-2998 colon = test system: HCC-2998 colon
A498 renal = test system: A498 renal
SK-MEL-2 melanoma = test system: SK-MEL-2 melanoma
SF-539 CNS = test system: SF-539 CNS
SK-MEL-5 melanoma = test system: SK-MEL-5 melanoma
EKVX NSCLC = test system: EKVX NSCLC
HS 578T breast = test system: HS 578T breast
HCT-116 colon = test system: HCT-116 colon
786-0 renal = test system: 786-0 renal
PC-3 prostate = test system: PC-3 prostate
COLO 205 colon = test system: COLO 205 colon
T-47D breast = test system: T-47D breast
UO-31 renal = test system: UO-31 renal
RPMI-8226 leukemia = test system: RPMI-8226 leukemia
MOLT-4 leukemia = test system: MOLT-4 leukemia
IGROV1 ovarian = test system: IGROV1 ovarian
MDA-MB-231 breast = test system: MDA-MB-231 breast
HCT-15 colon = test system: HCT-15 colon
SNB-19 CNS = test system: SNB-19 CNS
UACC-257 melanoma = test system: UACC-257 melanoma
MDA-MB-435 = test system: MDA-MB-435
CAKI-1 renal = test system: CAKI-1 renal
SK-OV-3 ovarian = test system: SK-OV-3 ovarian
K-562 leukemia = test system: K-562 leukemia
NCI-H23 lung = test system: NCI-H23 lung
MCF7 breast = test system: MCF7 breast
A549 NSCLC = test system: A549 NSCLC
SNB-75 CNS = test system: SNB-75 CNS
NCI-H226 lung = test system: NCI-H226 lung
SN12C renal = test system: SN12C renal
M14 melanoma = test system: M14 melanoma
KM12 colon = test system: KM12 colon
HOP-62 NSCLC = test system: HOP-62 NSCLC
OVCAR-3 ovarian = test system: OVCAR-3 ovarian
SR leukemia = test system: SR leukemia
NCI/ADR-RES ovarian = test system: NCI/ADR-RES ovarian
SF-295 CNS = test system: SF-295 CNS
BT-549 breast = test system: BT-549 breast
OVCAR-4 ovarian = test system: OVCAR-4 ovarian
SK-MEL-28 melanoma = test system: SK-MEL-28 melanoma
NCI-H522 lung = test system: NCI-H522 lung
OVCAR-8 ovarian = test system: OVCAR-8 ovarian
U251 CNS = test system: U251 CNS
HOP-92 NSCLC = test system: HOP-92 NSCLC
ACHN renal = test system: ACHN renal
SF-268 CNS = test system: SF-268 CNS
UACC-62 melanoma = test system: UACC-62 melanoma
NCI-H460 lung = test system: NCI-H460 lung
TK-10 renal = test system: TK-10 renal
HT29 colon = test system: HT29 colon
RXF 393 renal = test system: RXF 393 renal
CCRF-CEM leukemia = test system: CCRF-CEM leukemia
LOX IMVI melanoma = test system: LOX IMVI melanoma
HL-60(TB) leukemia = test system: HL-60(TB) leukemia

COc1ccc(C2=NNC(=O)c3ccccc3N2c2nc(-c3cccs3)nc3cc(OC)c(OC)cc23)cc1
TGI (SW-620 colon): > 100 µM | TGI (MALME-3M melanoma): 6.92 µM | TGI (OVCAR-5 ovarian): > 100 µM | TGI (DU-145 prostate): > 100 µM | TGI (HCC-2998 colon): 7.21 µM | TGI (A498 renal): 10.5 µM | TGI (SK-MEL-2 melanoma): 44.2 µM | TGI (SF-539 CNS): 8.56 µM | TGI (SK-MEL-5 melanoma): 17.3 µM | TGI (EKVX NSCLC): > 100 µM | TGI (HS 578T breast): 27.5 µM | TGI (HCT-116 colon): > 100 µM | TGI (786-0 renal): 12.1 µM | TGI (PC-3 prostate): > 100 µM | TGI (COLO 205 colon): > 100 µM | TGI (T-47D breast): 17.6 µM | TGI (UO-31 renal): 25 µM | TGI (RPMI-8226 leukemia): > 100 µM | TGI (MOLT-4 leukemia): > 100 µM | TGI (IGROV1 ovarian): > 100 µM | TGI (MDA-MB-231 breast): 13.5 µM | TGI (HCT-15 colon): > 100 µM | TGI (SNB-19 CNS): > 100 µM | TGI (UACC-257 melanoma): 88.2 µM | TGI (MDA-MB-435): 13.6 µM | TGI (CAKI-1 renal): 44.7 µM | TGI (SK-OV-3 ovarian): > 100 µM | TGI (K-562 leukemia): > 100 µM | TGI (NCI-H23 lung): > 100 µM | TGI (MCF7 breast): 9 µM | TGI (A549 NSCLC): > 100 µM | TGI (SNB-75 CNS): 14.1 µM | TGI (NCI-H226 lung): 20.6 µM | TGI (SN12C renal): 11.1 µM | TGI (M14 melanoma): 20.2 µM | TGI (KM12 colon): > 100 µM | TGI (HOP-62 NSCLC): 17 µM | TGI (OVCAR-3 ovarian): 9.24 µM | TGI (SR leukemia): > 100 µM | TGI (NCI/ADR-RES ovarian): > 100 µM | TGI (SF-295 CNS): 9.9 µM | TGI (BT-549 breast): 6.63 µM | TGI (OVCAR-4 ovarian): 4.49 µM | TGI (SK-MEL-28 melanoma): 5 µM | TGI (NCI-H522 lung): 88 µM | TGI (OVCAR-8 ovarian): > 100 µM | TGI (U251 CNS): 33.3 µM | TGI (HOP-92 NSCLC): 7.97 µM | TGI (ACHN renal): 13.3 µM | TGI (SF-268 CNS): > 100 µM | TGI (UACC-62 melanoma): 5.79 µM | TGI (NCI-H460 lung): > 100 µM | TGI (TK-10 renal): 21 µM

CC12O[C@H](C[C@@H](OC(=O)CCC(=O)O)[C@H]1O)n1c3ccccc3c3c4c(c5c6ccccc6n2c5c31)C(=O)NC4=O
GI50 (SW-620 colon): 1.43 µM | TGI (SW-620 colon): 13.4 µM | GI50 (MALME-3M melanoma): 0.2 µM | TGI (MALME-3M melanoma): 2.36 µM | GI50 (OVCAR-5 ovarian): 7.87 µM | TGI (OVCAR-5 ovarian): > 50 µM | GI50 (HCC-2998 colon): 5.64 µM | TGI (HCC-2998 colon): 15.1 µM | GI50 (A498 renal): 0.168 µM | TGI (A498 renal): 1.15 µM | GI50 (SK-MEL-2 melanoma): 0.464 µM | TGI (SK-MEL-2 melanoma): 16.5 µM | GI50 (SF-539 CNS): 1.22 µM | TGI (SF-539 CNS): 3.97 µM | GI50 (SK-MEL-5 melanoma): 1.41 µM | TGI (SK-MEL-5 melanoma): 6.69 µM | GI50 (HT29 colon): 1.45 µM | TGI (HT29 colon): 17.7 µM | GI50 (EKVX NSCLC): 7.28 µM | TGI (EKVX NSCLC): > 50 µM | GI50 (HS 578T breast): 2.43 µM | TGI (HS 578T breast): 28.4 µM | GI50 (HCT-116 colon): 1.5 µM | TGI (HCT-116 colon): 9.8 µM | GI50 (RXF 393 renal): 0.598 µM | TGI (RXF 393 renal): 4.16 µM | GI50 (786-0 renal): 2.14 µM | TGI (786-0 renal): 11.3 µM | GI50 (PC-3 prostate): 3.44 µM | TGI (PC-3 prostate): > 50 µM | GI50 (COLO 205 colon): 0.902 µM | TGI (COLO 205 colon): 5.26 µM | GI50 (T-47D breast): 0.83 µM | TGI (T-47D breast): > 50 µM | GI50 (UO-31 renal): 0.201 µM | TGI (UO-31 renal): 3.55 µM | GI50 (RPMI-8226 leukemia): 5.98 µM | TGI (RPMI-8226 leukemia): 24.3 µM | GI50 (MOLT-4 leukemia): 0.949 µM | TGI (MOLT-4 leukemia): 18 µM | GI50 (IGROV1 ovarian): 0.664 µM | TGI (IGROV1 ovarian): 38.8 µM | GI50 (MDA-MB-231 breast): 6.3 µM | TGI (MDA-MB-231 breast): 16.2 µM | GI50 (HCT-15 colon): 0.767 µM | TGI (HCT-15 colon): 16.4 µM | GI50 (SNB-19 CNS): 3.62 µM | TGI (SNB-19 CNS): 38.8 µM | GI50 (CCRF-CEM leukemia): 1.57 µM | TGI (CCRF-CEM leukemia): 13.4 µM | GI50 (UACC-257 melanoma): 1.52 µM | TGI (UACC-257 melanoma): 10.6 µM | GI50 (MDA-MB-435): 0.708 µM | TGI (MDA-MB-435): 7.08 µM | GI50 (SK-OV-3 ovarian): 0.323 µM | TGI (SK-OV-3 ovarian): 3.44 µM | GI50 (K-562 leukemia): 5.07 µM | TGI (K-562 leukemia): > 50 µM | GI50 (NCI-H23 lung): 1.13 µM | TGI (NCI-H23 lung): 20.3 µM | GI50 (MCF7 breast): 1.25 µM | TGI (MCF7 breast): 10.9 µM | GI50 (A549 NSCLC): 1.55 µM | TGI (A549 NSCLC): > 50 µM | GI50 (SNB-75 CNS): 1.07 µM | TGI (SNB-75 CNS): 7.41 µM | GI50 (NCI-H226 lung): 0.738 µM | TGI (NCI-H226 lung): 9.71 µM | GI50 (SN12C renal): 2.47 µM | TGI (SN12C renal): 24.5 µM | GI50 (M14 melanoma): 0.239 µM | TGI (M14 melanoma): 6.54 µM | GI50 (KM12 colon): 0.285 µM | TGI (KM12 colon): 11.5 µM | GI50 (HOP-62 NSCLC): 0.834 µM | TGI (HOP-62 NSCLC): 10.7 µM | GI50 (OVCAR-3 ovarian): 1.32 µM | TGI (OVCAR-3 ovarian): 14 µM | GI50 (SR leukemia): 0.505 µM | TGI (SR leukemia): 10.5 µM | GI50 (LOX IMVI melanoma): 1.47 µM | TGI (LOX IMVI melanoma): 7.88 µM | GI50 (NCI/ADR-RES ovarian): 6.24 µM | TGI (NCI/ADR-RES ovarian): 40.8 µM | GI50 (SF-295 CNS): 1.5 µM | TGI (SF-295 CNS): 7.6 µM | GI50 (BT-549 breast): 1.02 µM | TGI (BT-549 breast): 7.68 µM | GI50 (OVCAR-4 ovarian): 5.77 µM | TGI (OVCAR-4 ovarian): > 50 µM | GI50 (SK-MEL-28 melanoma): 1.51 µM | TGI (SK-MEL-28 melanoma): 19.8 µM | GI50 (NCI-H522 lung): 0.602 µM | TGI (NCI-H522 lung): 6.92 µM | GI50 (OVCAR-8 ovarian): 2.65 µM | TGI (OVCAR-8 ovarian): > 50 µM | GI50 (U251 CNS): 5.71 µM | TGI (U251 CNS): 17.1 µM | GI50 (HOP-92 NSCLC): 0.738 µM | TGI (HOP-92 NSCLC): 4.77 µM | GI50 (ACHN renal): 0.727 µM | TGI (ACHN renal): > 50 µM | GI50 (SF-268 CNS): 3.21 µM | TGI (SF-268 CNS): 23.9 µM | GI50 (UACC-62 melanoma): 0.585 µM | TGI (UACC-62 melanoma): 7.2 µM | GI50 (NCI-H460 lung): 1.46 µM | TGI (NCI-H460 lung): 12.2 µM | GI50 (HL-60(TB) leukemia): 9.62 µM | TGI (HL-60(TB) leukemia): 42.4 µM | GI50 (TK-10 renal): 0.411 µM | TGI (TK-10 renal): 10.9 µM
